We go through seven compounds from patent EP0306160A2, “Molluscicides” (BRITISH TECHNOLOGY GROUP LIMITED, priority 1987, dated 1989).

Like-named read-outs stand apart in the source and are kept apart here.

Holding throughout (type): in vivo
One series relates to Deroceras reticulatum. In words: Bait bioassay with increasing concentrations in standard bait (Examples 19-35). To be noted: for Kill: 4 days. As to the method:
Test compounds were incorporated into a standard wheat-flour-based edible carrier containing 10% paraffin wax binder and 2.5% sucrose phagostimulant, in increasing concentrations 0, 1, 4, 7, 10, 13 and 16% a.i.
Groups of ten field-collected D. reticulatum in the weight range 400-600 mg were confined with 0.5 g DM test bait at each concentration for a period of 4 days under a regime of 12 h dark @ 5°C and 12 light @ 15°C. Weight of bait eaten and number of slugs killed were recorded. Each group of compounds was tested against a concurrently run Al(ac.ac)₃ standard bait.
In Examples 23 to 35, where six groups of ten slugs are offered bait containing 1,4,7,10,13 or 16% a.i., have been reduced to two values, (i), the total amount of a.i. ingested (mg) which gives an indication of the palatability of the compound, and (ii), the total number of slugs killed (x/60) which, with (i), gives an indication of its relative toxicity.

Series [1] relates to grey field slugs, Deroceras reticulatum. The series is described as follows: Contact with coated glass plate. To be noted: for LC₅₀ On glass (50 min)., Mean: mean of all tests. The protocol:
(§1) All laboratory tests were made with field-collected grey field slugs, Deroceras reticulatum (Pulmonata, Limacidae) and also with Arion hortensis in the weight range 0.4-0.6g. They were held in polythene bowls on wet filter paper in a controlled environment cabinet cycling 12 hours light at 15°C and 12 hours dark at 5°C. Voluntary feeding tests were made under these conditions but all other laboratory bioassays were carried out at 10°C constant temperature with an overnight pre-treatment period also at 10°C.
Groups of ten slugs were placed foot-down on sheets of glass, 10 cm x 10 cm, previously coated with an aqueous solution of suspension of test chemical and air dried to leave a deposit of known weight per unit area. Slugs were confined to a treated area for a period of 50 minutes at 10°C on plates with increasing surface loadings, then removed and held in wet filter paper-floored petri dishes with food. The number of dead slugs after seven days was recorded and the values used to calculate median lethal surface concentrations ('LC₅₀') for each compound by probit analysis.

Series [2] has the same test system. The series is described as follows: Stomach poison action, voluntary feeding (wheatmeal bait). The protocol:
as §1
Test chemicals were offered to slugs at a range of concentrations in a wheat-meal based formulation, groups of ten slugs being confined in 15 cm crystallising dishes containing only wet filter paper and a solid watch glass filled with 3 g (dry weight) of test bait for four 24-hour cycles […]

Series [3] has as its system slugs. The series is described as follows: Laboratory test, standard baits containing 1% metal ion, no alternative food (Example 17). The settings on record: 3 replicates of 10 slugs; standard bait containing 1% metal ion. As to the method: as §1
Laboratory tests where 3 replicates of 10 slugs were confined with standard baits containing 1% metal ion in different compounds, and no alternative food supplied, gave the following results: Aluminium sulphate (Al₂(SO₄)₃): 0/10, 0/10, 0/10 killed Aluminium acetylacetonate: 10/10, 10/10, 10/10 killed (Ex 17)

For series [4], the system named is grey field slugs, Deroceras reticulatum. The series is described as follows: Contact with treated soil surface. The settings on record: mean of all tests. The protocol:
as §1
Groups of ten slugs were held in plastic seed trays, 20 x 34 cm x 5 cm deep, filled to a depth of 1 cm with standard soil, a sandy clay loam from Rothamsted Farm, with a pH in water of 5.2, previously oven-dried, sieved (2 mm mesh), and rewetted to field capacity in the trays. Test chemicals were mixed with 5g dry soil, ground together and sprinkled on to the wet soil surface. Slugs were confined to the treated surface by a 16 v pulsed DC electric fence attached to the tray sides. Trays were covered to maintain a high Relative Humidity and food was provided. Dead slugs were removed daily and the final mortality count made after 10 days.

The subject of series [5] is slugs. The series is described as follows: Field comparison of baits (grass/clover), Table VII. The settings on record: first 4 days of trial; bait 10 % ai, 2.5 % sucrose (PP pellets 6 % ai, Draza pellets 4 % ai). The source says: In Table VII there is presented a comparison of the efficacy of present iron and aluminium chelates with metaldehyde and methiocarb under field conditions (grass/clover).

In the series with Deroceras reticulatum (total over six groups of ten slugs offered bait containing 1,4,7,10,13 or 16% a.i.), “Tris (1-dimethoxy-2, 4-pentanedionato) Al III [Example 29]” gave a Slugs dead of 14 x/10.

As to `CC(=O)C=C(C)[O][Al]([O]C(C)=CC(C)=O)[O]C(C)=CC(C)=O` [Example 19, Tris (2,4-pentanedionato) Al III], in series [1] (individual tests, 50 min contact at 10°C, dead after seven days, bracketed values estimated, listed as Al^III acetylacetonate), the “LC₅₀ On glass (50 min).” value is on record as “(10-100)(Example 1) µg metal cm²”. The “LC₅₀ On glass (50 min)., Mean” value in series [1] is listed as “(< 100) µg metal cm²”. In addition, the mortality at 0.01 % in series [2] (Deroceras reticulatum, po, 168 h, 0.01 % Al in wheatmeal bait, read-out: Mortality after 7 days) came to 10%. The mortality at 0.03 % in series [2] (Deroceras reticulatum, po, 168 h, 0.03 % Al in wheatmeal bait, read-out: Mortality after 7 days) amounted to 10%. Also, the mortality at 0.1 % in series [2] (Deroceras reticulatum, po, 168 h, 0.1 % Al in wheatmeal bait, read-out: Mortality after 7 days) is 20%; in series [2] (Deroceras reticulatum, po, 216 h, 0.1 % Metal in wheatmeal bait (Table III), read-out: Mortality after 9 days) it was 40%. For the same compound, in series [2] (Deroceras reticulatum, po, 168 h, 0.3 % Al in wheatmeal bait, read-out: Mortality after 7 days), the mortality at 0.3 % worked out at 40%. Moreover, the mortality at 1 % in series [2] (Deroceras reticulatum, po, 168 h, 1.0 % Al in wheatmeal bait, read-out: Mortality after 7 days) is 100%; in series [2] (Deroceras reticulatum, po, 216 h, 1.0 % Metal in wheatmeal bait (Table III), read-out: Mortality after 9 days) it was 80%; in series [2] (Deroceras reticulatum, po, at 1 per cent Aluminium content, non-choice test (Table II), read-out: mortality), 100%. For the same compound, the mortality at 3 % in series [2] (Deroceras reticulatum, po, 168 h, 3.0 % Al in wheatmeal bait, read-out: Mortality after 7 days) was 100%. Besides, the mortality at 0.5 % in series [2] (Deroceras reticulatum, po, 216 h, 0.5 % Metal in wheatmeal bait (Table III), read-out: Mortality after 9 days) turned out to be 80%. Moreover, the mortality at 5 % in series [2] (Deroceras reticulatum, po, 216 h, 5.0 % Metal in wheatmeal bait (Table III), read-out: Mortality after 9 days) came to 80%. In addition, the mortality at 10 % in series [2] (Deroceras reticulatum, po, 216 h, 10.0 % Metal in wheatmeal bait (Table III), read-out: Mortality after 9 days) came to 80%. Also, the killed in the series with slugs [3] is 10/10. Further, the Kill in the series with Deroceras reticulatum (1 % a.i. in standard bait) is 0 x/10; in the series on Deroceras reticulatum (4 % a.i. in standard bait), 0 x/10; in the series with Deroceras reticulatum (7 % a.i. in standard bait) it was 6 x/10; in the series on Deroceras reticulatum (10 % a.i. in standard bait), 7 x/10; in the series on Deroceras reticulatum (13 % a.i. in standard bait), 8 x/10; in the series with Deroceras reticulatum (16 % a.i. in standard bait), 8 x/10. In series [4], the “LC₅₀ On soil (10 days), Mean” value is listed as 34.1 µg metal/cm².

As for `CCC(=O)C=C(C)[O][Al]([O]C(C)=CC(=O)CC)[O]C(C)=CC(=O)CC` [Example 20, Tris (2,4-hexanedionato) Al III], the Kill is listed as 1 x/10 with Deroceras reticulatum (1 % a.i. in standard bait); 0 x/10 in the series on Deroceras reticulatum (4 % a.i. in standard bait); 4 x/10 with Deroceras reticulatum (7 % a.i. in standard bait); 1 x/10 with Deroceras reticulatum (10 % a.i. in standard bait); 5 x/10 in the series on Deroceras reticulatum (13 % a.i. in standard bait); 5 x/10 with Deroceras reticulatum (16 % a.i. in standard bait).

With `CC1OC(C)OC(C)OC(C)O1` (centres unmarked) [Metaldehyde], the “Total Slugs 'Dead' or 'Immobilised' (Cumulative) Total D+I” value in the series on slugs [5] is reported as 461.

As for `CNC(=O)Oc1cc(C)c(SC)c(C)c1` [Methiocarb], the “Total Slugs 'Dead' or 'Immobilised' (Cumulative) Total D+I” value in the series with slugs [5] stood at 557.

As to Aluminium sulphate [reference compound], the “LC₅₀ values on glass” value in series [1] is given as “around 20 µg metal cm⁻²”. Further, the “LC₅₀ On glass (50 min)., Mean” value in series [1] worked out at 20.9 µg metal cm⁻². Further, the “Mortality after 7 days” value in series [2] (0.01 % Al in wheatmeal bait) is reported as 1 x/10; in series [2] (0.03 % Al in wheatmeal bait), 2 x/10; in series [2] (0.1 % Al in wheatmeal bait) it was 3 x/10; in series [2] (0.3 % Al in wheatmeal bait) it was 3 x/10; in series [2] (1.0 % Al in wheatmeal bait), 5 x/10; in series [2] (3.0 % Al in wheatmeal bait), 2 x/10. For the same compound, the killed in the series with slugs [3] is given as 0/10. Besides, in series [4], the “LC₅₀ On soil (10 days), Mean” value amounted to 207.4 µg metal/cm².

Regarding `CCC(=O)C=C(CC)[O][Al]([O]C(=CC(=O)CC)CC)[O]C(=CC(=O)CC)CC` [Example 21, Tris (3,5-heptanedionato) Al III], the Kill in the series with Deroceras reticulatum (1 % a.i. in standard bait) is 1 x/10; in the series on Deroceras reticulatum (4 % a.i. in standard bait), 3 x/10; in the series with Deroceras reticulatum (7 % a.i. in standard bait) it was 0 x/10; in the series on Deroceras reticulatum (10 % a.i. in standard bait), 1 x/10; with Deroceras reticulatum (13 % a.i. in standard bait), 1 x/10; with Deroceras reticulatum (16 % a.i. in standard bait) it was 2 x/10.
